Reference: US20240294551A1 (AMGEN INC., priority 2022, published 2024)
Where two headings read alike, the source gives them in different places.

What was measured:
MIA PaCa-2 cells = experiment: MIA PaCa-2 CTG Assay (CellTiter-Glo cell viability); format: cell-based, human; conditions: Mia PaCa-2, 72 h, second value of the cell, read-out: G12D/C/V Cell Proliferation CTG (72 h) Mia PaCa-2
In short: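 Human pancreatic carcinoma cells in RPMI 1640 with 10% FBS, seeded at 1.67E+04 cells/mL and left overnight, were treated with serially diluted compound for 72 h at 37° C, 5% CO2. Viability was read by CellTiter-Glo luminescence normalized to DMSO; IC50 came from a 4-parameter logistic fit.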

AsPC-1 cells = experiment: AsPC-1 CTG Assay (CellTiter-Glo cell viability); format: cell-based, human; conditions: AsPC-1, 72 h, first value of the cell, read-out: G12D/C/V Cell Proliferation CTG (72 h) AsPC-1
In short: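 Human pancreatic AsPC-1 or colon SW620 cells in RPMI 1640 with 10% FBS, seeded overnight, then exposed to serially diluted compound for 72 h at 37 °C. CellTiter-Glo luminescence normalized to DMSO control; IC50 from a 4-parameter logistic model.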

[1] = test system: Phosphorylation of ERK1/2 in AsPC-1 cells; experiment: Phospho-ERK1/2 MSD Assay; format: cell-based, human; conditions: read-out: 2 h p-ERK (AsPC-1 cells), IC50
In short: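 Read-out: MSD electrochemiluminescent detection of phosphorylated ERK1/2 in whole-cell lysates, fitted to a 4-parameter logistic curve for IC50. Prior to lysis, AsPC-1 cells (25,000 per well) received a 2 h compound dose-response at 37 °C.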

[2] = molecular target: His-tagged KRAS G12D protein (Homo sapiens (Human), UniProt P01116, G12D); experiment: KRAS G12D TR-FRET Assay; format: binding; conditions: read-out: KRAS G12D Binding IC50
In short: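 His-tagged KRAS G12D (diluted to 20 nM in pH 7.4 HEPES buffer with 10 mM MgCl2 and 10 μM GDP) was preincubated with titrated compound for 30 min at room temperature. Biotinylated KRPep-2d peptide (diluted to 20 nM) was then added for 1 h, and displacement was monitored by TR-FRET.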

[3] = molecular target: GDP-bound KRAS protein (aa 1-169), containing both G12D and C118A amino acid substitutions (Homo sapiens (Human), UniProt P01116, C118A/G12D); experiment: KRAS G12D Coupled Nucleotide Exchange Assay; format: biochemical; conditions: read-out: KRAS G12D Coupled Exchange IC50
Sequence of GDP-bound KRAS protein (aa 1-169), containing both G12D and C118A amino acid substitutions (P01116 other isoform, or with tags, fused parts or gaps G12D/C118A): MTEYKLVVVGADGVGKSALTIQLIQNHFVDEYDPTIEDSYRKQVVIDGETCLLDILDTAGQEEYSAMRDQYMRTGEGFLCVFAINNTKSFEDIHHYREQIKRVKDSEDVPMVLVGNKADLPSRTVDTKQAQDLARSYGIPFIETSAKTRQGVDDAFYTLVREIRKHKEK

Sequence of His-tagged KRAS G12D protein (P01116 other isoform, or with tags, fused parts or gaps G12D): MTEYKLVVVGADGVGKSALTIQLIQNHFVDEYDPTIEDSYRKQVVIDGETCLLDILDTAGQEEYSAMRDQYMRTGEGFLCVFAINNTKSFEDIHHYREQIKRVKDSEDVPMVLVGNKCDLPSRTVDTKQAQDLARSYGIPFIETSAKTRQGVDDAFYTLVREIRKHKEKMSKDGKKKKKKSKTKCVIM

Compound | IC50 (MIA PaCa-2 cells; Homo sapiens) | IC50 (AsPC-1 cells; Homo sapiens, ASPC1, 72 h) | IC50 ([1]; Homo sapiens, ASPC1, 2 h) | IC50 [2] | IC50 [3] | IC50 (MIA PaCa-2 cells) | IC50 (AsPC-1 cells) | IC50 ([1]; 2 h) | IC50 (AsPC-1 cells; Homo sapiens, ASPC1)
Cc1cc2[nH]ncc2c2c1CCCOCC(=O)N1CC[C@@H]3CCN(C[C@@H]31)c1nc(OC[C@@]34CCCN3C[C@H](F)C4)nc3c(F)c-2ncc13 [Example 277, (29S,33R)-34-fluoro-4-(((2R,7aS)-2-fluorotetrahydro-1H-pyrrolo[1,2-a]pyrrol-7a(5H)-yl)methoxy)-18-methyl-23-oxa-1,3,5,9,14,15,26-heptaazaheptacyclo[24.5.2.1~6,10~.0~2,7~.0~11,19~.0~12,16~.0~29,33~]tetratriaconta-2,4,6,8,10(34),11,13,16,18-nonaen-25-one] | 60 nM | 88 nM | 11 nM | 3 nM | 2 nM |  |  |  | 
O=C1CC/C=C\c2c(Cl)cc3[nH]ncc3c2-c2ncc3c(nc(OC[C@@]45CCCN4C[C@H](F)C5)nc3c2F)N2CCCC(C2)O1 (stereo in doubt) [Example 35, (11Z,17S)-9-Chloro-30-fluoro-24-(((2R,7aS)-2-fluorotetrahydro-1H-pyrrolo[1,2-a]pyrrol-7a(5H)-yl)methoxy)-16-oxa-5,6,21,23,25,29-hexaazahexacyclo[24.3.1.1˜17,21˜.0˜2,10˜.0˜3,7˜.0˜22,27˜]hentriaconta-1(30),2,4,7,9,11,22,24,26,28-decaen-15-one bis(2,2,2-trifluoroacetate)] | 90 nM |  | 19 nM | 1 nM | 1 nM |  |  |  | 277 nM
O=C1OCCCc2c(Cl)cc3[nH]ncc3c2-c2c(F)cc3c(nc(OC[C@@]45CCCN4C[C@H](F)C5)nc3c2F)N2CCOC[C@H](C2)O1 [Example 187, p-(26S)-18-chloro-9,32-difluoro-4-(((2R,7aS)-2-fluorotetrahydro-1H-pyrrolo[1,2-a]pyrrol-7a(5H)-yl)methoxy)-23,25,28-trioxa-1,3,5,14,15-pentaazahexacyclo[24.4.1.1~6,10~.0~2,7~.0~11,19~.0~12,16~]dotriaconta-2,4,6,8,10(32),11,13,16,18-nonaen-24-one] | 15 nM | 76 nM | 4.6 nM | 4 nM | 2 nM |  |  |  | 
O=C1OCCCc2c(Cl)cc3[nH]ncc3c2-c2ccc3c(nc(OC[C@@]45CCCN4C[C@H](F)C5)nc3c2F)N2CCOC[C@H](C2)O1 [Example 189, (26S)-18-chloro-32-fluoro-4-(((2R,7aS)-2-fluorotetrahydro-1H-pyrrolo[1,2-a]pyrrol-7a(5H)-yl)methoxy)-23,25,28-trioxa-1,3,5,14,15-pentaazahexacyclo[24.4.1.1~6,10~.0~2,7~.0~11,19~.0~12,16~]dotriaconta-2,4,6,8,10(32),11,13,16,18-nonaen-24-one] | 24 nM | 115 nM | 4.9 nM | 3 nM | 2 nM |  |  |  | 
O=C1COCCc2c(Cl)cc3[nH]ncc3c2-c2ncc3c(nc(OC[C@@]45CCCN4C[C@H](F)C5)nc3c2F)N2CC[C@H]3CCN1[C@H]3C2 [Example 270, (28S,32R)-18-chloro-33-fluoro-4-(((2R,7aS)-2-fluorotetrahydro-1H-pyrrolo[1,2-a]pyrrol-7a(5H)-yl)methoxy)-22-oxa-1,3,5,9,14,15,25-heptaazaheptacyclo[23.5.2.1~6, 10~.0~2,7~.0~11,19~.0~12,16~.0~28,32~]tritriaconta-2,4,6,8,10(33),11,13,16,18-nonaen-24-one] |  |  |  | 7 nM | 2 nM | 675 nM | 606 nM | 123 nM | 
Fc1c2ncc3c(nc(OC[C@@]45CCCN4C[C@H](F)C5)nc13)N1CCC[C@H](C1)c1cnn(n1)CCCc1c(Cl)cc3[nH]ncc3c1-2 [Example 259] | 126 nM | 215 nM | 25.3 nM | 4 nM | 3 nM |  |  |  | 
CN1C[C@H](F)C[C@H]1COc1nc2c3cnc(c(F)c3n1)-c1cc(O)cc3ccc(F)c(c13)CCCC(=O)N[C@]1(C)CCCN2C1 [Example 5, (15R)-22,31-Difluoro-8-(((2S,4R)-4-fluoro-1-methyl-2-pyrrolidinyl)methoxy)-27-hydroxy-15-methyl-3,7,9,11,16-pentaazahexacyclo[19.7.1.1˜2,6˜.1˜11,15˜.0˜5,10˜.0˜25,29˜]hentriaconta-1(28),2(31),3,5,7,9,21,23,25(29),26-decaen-17-one bis(2,2,2-trifluoroacetate)] | 62 nM | 471 nM | 23 nM | 1 nM | 1 nM |  |  |  | 
O=C1OC/C=C\c2c(Cl)cc3[nH]ncc3c2-c2ncc3c(nc(OC[C@@]45CCCN4C[C@H](F)C5)nc3c2F)N2CCC[C@H](C2)O1 (single isomer, unassigned) [Example 122] | 100 nM | 250 nM | 8 nM | 5 nM | 3 nM |  |  |  | 
C[C@@]12CCCN(C1)c1nc(OC[C@@]34CCCN3C[C@H](F)C4)nc3c(F)c(ncc13)-c1cc(O)cc3cccc(c13)CCCC(=O)N2 [Example 3, (15R)-31-Fluoro-8-(((2R,7aS)-2-fluorotetrahydro-1H-pyrrolo[1,2-a]pyrrol-7a(5H)-yl)methoxy)-27-hydroxy-15-methyl-3,7,9,11,16-pentaazahexacyclo[19.7.1.1˜2,6˜.1˜11,15˜.0˜5,10˜.0˜25,29˜]hentriaconta-1(28),2(31),3,5,7,9,21,23,25(29),26-decaen-17-one bis(2,2,2-trifluoroacetate)] | 75 nM | 285 nM | 23 nM | 1 nM | 0.1 nM |  |  |  | 

Second part, led by results:

IC50 (MIA PaCa-2 cells; Homo sapiens) | IC50 (AsPC-1 cells; Homo sapiens, ASPC1, 72 h) | IC50 ([1]; Homo sapiens, ASPC1, 2 h) | IC50 [2] | IC50 [3] | IC50 (MIA PaCa-2 cells) | IC50 (AsPC-1 cells) | IC50 ([1]; 2 h) | Compound | IC50 (AsPC-1 cells; Homo sapiens, ASPC1)
80 nM | 137 nM | 13.8 nM | 4 nM | 3 nM |  |  |  | CN1C[C@H](F)C[C@H]1COc1nc2c3cnc(c(F)c3n1)-c1c(c(Cl)cc3[nH]ncc13)CCOC(=O)O[C@H]1C[C@@]3(CCCN2C3)C1 [Example 320, (1S,3R)-10-chloro-32-fluoro-24-(((2S,4R)-4-fluoro-1-methyl-2-pyrrolidinyl)methoxy)-4,6-dioxa-13,14,19,23,25,27-hexaazaheptacyclo[25.3.1.1~1,3~.1~18,22~.0~9,17~.0~12,16~.0~21,26~]tritriaconta-9,11,14,16,18(32),19,21,23,25-nonaen-5-one] | 
10 nM | 40 nM | 2 nM | 2 nM | 1 nM |  |  |  | O=C1CCCCc2c(Cl)cc3[nH]ncc3c2-c2ncc3c(nc(OC[C@@]45CCCN4C[C@H](F)C5)nc3c2F)N2CCCC[C@H](C2)O1 [Example 82, (26R)-18-chloro-32-fluoro-4-(((2R,7aS)-2-fluorotetrahydro-1H-pyrrolo[1,2-a]pyrrol-7a(5H)-yl)methoxy)-25-oxa-1,3,5,9,14,15-hexaazahexacyclo[24.4.1.1~6,10~.0~2,7~.0~11,19~.0~12,16~]dotriaconta-2,4,6,8,10(32),11,13,16,18-nonaen-24-one] | 
230 nM | 370 nM | 41 nM | 6 nM | 3 nM |  |  |  | Cc1cc2[nH]ncc2c2c1C/C=C\COC[C@@H]1CCCN(C1)c1nc(OC[C@@]34CCCN3C[C@H](F)C4)nc3c(F)c-2ncc13 [Example 131] | 
10 nM | 108 nM | 5 nM | 3 nM | 1 nM |  |  |  | CN(C)CC1(COc2nc3c4cnc(c(F)c4n2)-c2cc(O)cc4ccc(F)c(c24)CCCC(=O)N[C@]2(C)CCCN3C2)CC1 [Example 22, (15R)-8-((1-((Dimethylamino)methyl)cyclopropyl)methoxy)-22,31-difluoro-27-hydroxy-15-methyl-3,7,9,11,16-pentaazahexacyclo[19.7.1.1˜2,6˜.1˜11,15˜.0˜5,10˜.0˜25,29˜]hentriaconta-1(28),2(31),3,5,7,9,21,23,25(29),26-decaen-17-one bis(2,2,2-trifluoroacetate)] | 
